Measurements from patent US8012975B2, “Antitumoral analogs of ET-743” (Pharma Mar, S.A., priority 2000, dated 2011).

Assays:
[1] = system: MC116; assay: Cytotoxic activity (M) panel, Lymphoma undifferentiated MC116; settings: Homo sapiens, MC116, read-out: CYTOTOXIC ACTIVITY (M) MC116, leukemias & lymphomas, Lymphoma undifferentiated, line MC116
[2] = system: U-937; assay: Cytotoxic activity (M) panel, Lymphoma Histiocytic U-937; settings: Homo sapiens, U-937, read-out: CYTOTOXIC ACTIVITY (M) U-937
[3] = system: Hut 78; assay: Cytotoxic activity (M) panel, Lymphoma Cutaneus T cell Hut 78; settings: Homo sapiens, HuT78, read-out: CYTOTOXIC ACTIVITY (M) Hut 78, leukemias & lymphomas, Lymphoma Cutaneus T cell, line Hut 78
[4] = system: Molt 3; assay: Cytotoxic activity (M) panel, Acute lymphoblastic Molt 3; settings: Homo sapiens, MOLT-3, read-out: CYTOTOXIC ACTIVITY (M) Molt 3, leukemias & lymphomas, ALL Acute lymphoblastic, line Molt 3
[5] = system: PANC-1; assay: Cytotoxic activity (M) panel, Pancreas PANC-1; settings: Homo sapiens, PANC-1, read-out: CYTOTOXIC ACTIVITY (M) PANC-1
[6] = system: OSA-FH; assay: Cytotoxic activity (M) panel, Osteosarcoma OSA-FH; settings: read-out: CYTOTOXIC ACTIVITY (M) OSA-FH
[7] = system: 5637; assay: Cytotoxic activity (M) panel, Bladder 5637; settings: read-out: CYTOTOXIC ACTIVITY (M) 5637
[8] = system: 786-O; assay: Cytotoxic activity (M) panel, Renal 786-O; settings: Homo sapiens, 786-0, read-out: CYTOTOXIC ACTIVITY (M) 786-O
[9] = system: FADU; assay: Cytotoxic activity (M) panel, Pharnynx FADU; settings: Homo sapiens, read-out: CYTOTOXIC ACTIVITY (M) FADU
[10] = system: MX-1; assay: Cytotoxic activity (M) panel, Breast MX-1; settings: Homo sapiens, MX1, read-out: CYTOTOXIC ACTIVITY (M) MX-1
[11] = system: NCI-H187; assay: Cytotoxic activity (M) panel, SCL NCI-H187; settings: Homo sapiens, NCI-H187, read-out: CYTOTOXIC ACTIVITY (M) NCI-H187
[12] = system: Y-79; assay: Cytotoxic activity (M) panel, Retinoblastoma Y-79; settings: Homo sapiens, Y79, read-out: CYTOTOXIC ACTIVITY (M) Y-79
[13] = system: LNCAP; assay: Cytotoxic activity (M) panel, Prostate LNCAP; settings: Homo sapiens, read-out: CYTOTOXIC ACTIVITY (M) LNCAP
[14] = system: CHSA; assay: Cytotoxic activity (M) panel, Chondrosarcoma CHSA; settings: read-out: CYTOTOXIC ACTIVITY (M) CHSA
[15] = system: SK-HEP-1; assay: Cytotoxic activity (M) panel, Liver SK-HEP-1; settings: Homo sapiens, SK-HEP1, read-out: CYTOTOXIC ACTIVITY (M) SK-HEP-1
[16] = system: Hs746t; assay: Cytotoxic activity (M) panel, Gastric Hs746t; settings: Homo sapiens, read-out: CYTOTOXIC ACTIVITY (M) Hs746t
[17] = system: MEL-28; assay: Cytotoxic activity (M) panel, Melanoma Mel-28; settings: Homo sapiens, SK-MEL-28, read-out: CYTOTOXIC ACTIVITY (M) Mel-28
[18] = system: PC3; assay: Cytotoxic activity (M) panel, Prostate PC3; settings: Homo sapiens, PC-3, read-out: CYTOTOXIC ACTIVITY (M) PC3
[19] = system: HT-29; assay: Cytotoxic activity (M) panel, Colon HT-29; settings: Homo sapiens, HT-29, read-out: CYTOTOXIC ACTIVITY (M) HT-29
[20] = in vitro; settings: African green monkey
[21] = system: MEL-28; assay: Cytotoxic activity IC50, MEL-28; settings: Homo sapiens, SK-MEL-28, read-out: CYTOTOXIC ACTIVITIY IC50 (μM) MEL-28, MEL-28
[22] = system: A-549; assay: Cytotoxic activity IC50, A-549; settings: Homo sapiens, A549, read-out: CYTOTOXIC ACTIVITIY IC50 (μM) A-549, A-549
[23] = system: HT-29; assay: Cytotoxic activity IC50, HT-29; settings: Homo sapiens, HT-29, read-out: CYTOTOXIC ACTIVITIY IC50 (μM) HT-29, HT-29
[24] = system: DU-145; assay: Cytotoxic activity IC50, DU-145; settings: Homo sapiens, DU-145, read-out: CYTOTOXIC ACTIVITIY IC50 (μM) DU-145, DU-145
[25] = system: P-388; assay: Cytotoxic activity IC50, P-388; settings: Mus musculus, P388, read-out: CYTOTOXIC ACTIVITIY IC50 (μM) P-388
[26] = system: SK-OV-3; assay: Cytotoxic activity (M) panel, Ovary SK-OV-3; settings: Homo sapiens, SK-OV-3, read-out: CYTOTOXIC ACTIVITY (M) SK-OV-3

Which IC50 [1] does the source give for CCCC(=O)NC[C@H]1c2c(c(OC(C)=O)c(C)c3c2OCO3)CC2[C@H]3c4c(cc(C)c(OC)c4O)C[C@@H]([C@H](O)N21)N3C (stereo partly drawn) [drawing 229] here?
The IC50 was 1.62e-08 M.

And the IC50 [2]?
Its IC50 is 1.92e-09 M.

And the IC50 [3]?
Its IC50 is 7.33e-09 M.

What about the IC50 [4] of the same compound?
The IC50 was 1.62e-09 M.

Which IC50 [5] does the source give for CCC(=O)N[C@@H](C)C(=O)NC[C@H]1c2c(c(OC(C)=O)c(C)c3c2OCO3)CC2[C@H]3c4c(cc(C)c(OC)c4O)C[C@@H]([C@H](O)N21)N3C (stereo partly drawn) [drawing 228] here?
Its IC50 is 8.61e-09 M.

What about the IC50 [6] of the same compound?
The IC50 was 1.15e-08 M.

What about the IC50 [7] of the same compound?
The IC50 was 1.17e-09 M.

And the IC50 [8]?
The IC50 was 1.54e-08 M.

And the IC50 [9]?
Its IC50 is 4.38e-08 M.

And the IC50 [10]?
The IC50 was 1.92e-09 M.

What about the IC50 [11] of the same compound?
Its IC50 is 9.89e-11 M.

And the IC50 [12]?
The IC50 was 7.45e-10 M.

What about the IC50 [13] of the same compound?
The IC50 was 1.77e-08 M.

And the IC50 [14]?
The IC50 was 2.91e-08 M.

And the IC50 [15]?
The IC50 was 6.21e-09 M.

And the IC50 [16]?
Its IC50 is 8.15e-09 M.

What about the IC50 [17] of the same compound?
The IC50 was 1.42e-08 M.

For COc1c(C)cc2c(c1O)[C@@H]1C3Cc4c(OC(C)=O)c(C)c5c(c4[C@H](CNC(=O)[C@H](C)NC(=O)CCc4ccccc4)N3[C@@H](O)[C@H](C2)N1C)OCO5 (stereo partly drawn) [drawing 215], which IC50 [5] is on record?
Its IC50 is 8.93e-10 M.

And the IC50 [6]?
The IC50 was 8.84e-10 M.

And the IC50 [7]?
Its IC50 is 1.65e-10 M.

What about the IC50 [18] of the same compound?
Its IC50 is 8.13e-10 M.

What about the IC50 [19] of the same compound?
Its IC50 is 7.43e-10 M.

And the IC50 [8]?
Its IC50 is 7.88e-10 M.

What about the IC50 [9] of the same compound?
The IC50 was 8.41e-10 M.

And the IC50 [14]?
Its IC50 is 1.08e-09 M.

And the IC50 [15]?
Its IC50 is 1.4e-09 M.

What about the IC50 [16] of the same compound?
Its IC50 is 9.35e-10 M.

And the IC50 [17]?
Its IC50 is 1.08e-09 M.

With C=CCOc1c(C)c2c(c3c1CC1[C@H]4c5c(cc(C)c(OC)c5OCOC)C[C@@H]([C@H](C#N)N1[C@H]3CN)N4C)OCO2 (stereo partly drawn) as the compound, how does the IC50 [20] read?
The IC50 was 1800 nM.

And the IC50 [21]?
The IC50 was 1.8 µM.

What about the IC50 [22] of the same compound?
The IC50 was 1.8 µM.

And the IC50 [23]?
Its IC50 is 1.8 µM.

And the IC50 [24]?
Its IC50 is 1.8 µM.

With C=CCOc1c(C)c2c(c3c1CC1[C@H]4c5c(cc(C)c(OC)c5OCOC)C[C@@H]([C@H](C#N)N1[C@H]3COC(=O)CCc1ccccc1)N4C)OCO2 (stereo partly drawn) as the compound, how does the IC50 [25] read?
Its IC50 is 0.7 µM.

And the IC50 [20]?
Its IC50 is 700 nM.

What about the IC50 [21] of the same compound?
The IC50 was 0.7 µM.

What about the IC50 [22] of the same compound?
The IC50 was 0.7 µM.

What about the IC50 [23] of the same compound?
The IC50 was 0.7 µM.

And the IC50 [24]?
Its IC50 is 0.7 µM.

For COC1=C(C)C(=O)C2=C(C1=O)[C@H](CNC(=O)C(C)N=CSNc1ccccc1)N1C(C2)[C@H]2c3c(cc(C)c(OC)c3O)C[C@@H]([C@@H]1C#N)N2C (stereo partly drawn), which IC50 [20] is on record?
Its IC50 is 18 nM.

What does the source list for CCC(=O)NC[C@H]1c2c(c(OC(C)=O)c(C)c3c2OCO3)CC2[C@H]3c4c(cc(C)c(OC)c4O)C[C@@H]([C@H](O)N21)N3C (stereo partly drawn) [drawing 227]?
IC50 [5]: 1.37e-09 M; IC50 [6]: 4.37e-09 M; IC50 [7]: 9.91e-10 M; IC50 [8]: 2.27e-09 M; IC50 [9]: 3.05e-08 M; IC50 [11]: 2.41e-11 M; IC50 [26]: 2.9e-08 M; IC50 [12]: 3.08e-10 M; IC50 [13]: 2.38e-08 M; IC50 [14]: 1.63e-09 M; IC50 [15]: 1.17e-09 M; IC50 [16]: 1.36e-09 M; IC50 [17]: 2.85e-09 M

Which results are given for COc1c(C)cc2c(c1O)[C@@H]1C3Cc4c(OC(C)=O)c(C)c5c(c4[C@H](CNC(=O)/C=C/c4cccc(C(F)(F)F)c4)N3[C@@H](O)[C@H](C2)N1C)OCO5 (stereo partly drawn) [drawing 218]?
IC50 [1]: 2.15e-10 M; IC50 [2]: 1.77e-10 M; IC50 [3]: 5.5e-11 M; IC50 [4]: 6.13e-10 M

For CCCCCC(=O)N[C@@H](C)C(=O)NC[C@H]1c2c(c(OC(C)=O)c(C)c3c2OCO3)CC2[C@H]3c4c(cc(C)c(OC)c4O)C[C@@H]([C@H](O)N21)N3C (stereo partly drawn), which IC50 [25] is on record?
The IC50 was 0.001 µM.

What about the IC50 [20] of the same compound?
The IC50 was 1 nM.

And the IC50 [21]?
The IC50 was 0.001 µM.

And the IC50 [22]?
The IC50 was 0.001 µM.

And the IC50 [23]?
Its IC50 is 0.001 µM.

What about the IC50 [24] of the same compound?
The IC50 was 0.001 µM.
